Tested on: normotensive Dutch Belted rabbits
Experiment: Intraocular pressure (IOP) after single dose in normotensive rabbits
Format: in vivo, rabbit
Protocol: Water (pH 4.5, made isotonic with sodium chloride), was selected as vehicle for the IOP-studies.
Five concentrations (0.01, 0.05, 0.2, 0.5 and 1.0% w/v) of CHF 1035 were studied. Brimonidine (0.2% w/v) was used as a positive, and vehicle (water pH 4.5) as a negative control.
The experimental animals used were normotensive Dutch Belted rabbits of either gender (n=6). A single drop (25 μl) of the test solution was instilled unilaterally into the left eye (treated eye). IOP of the rabbits (treated and untreated eyes) was measured at 1 and 0 h before, and at 0.5, 1, 2, 3, 4, 5, 6 and 7 h after topical eyedrop administration. IOP at the time of eyedrop administration (0 h) was used as a baseline value. IOP was measured using a BioRad Pneumatonometer. More detailed description of the IOP measurement procedure can be found in Pharm. Res. 14, 1738-1743, 1997 and Curr. Eye Res. 14, 791-797, 1995. All the studies were set up using a randomized crossover design. At least 72 h of wash-out time was allowed for each rabbit between dosings. The irritation caused by an instilled eyedrop were evaluated by recording the extent of eyelid closure after topical eyedrop administration.

## CNC1CCc2c(ccc(OC(=O)C(C)C)c2OC(=O)C(C)C)C1 (racemic) [CHF 1035, (±)-(R,S)-5,6-diisobutyryloxy-2-methylaminotetralin]
1.0% w/v, 300 min
  IOP changes (mean ± SEM) in the treated eye: −5.8 ± 1.6 mmHg
  IOP changes (mean ± SEM) in the untreated eye: −0.7 ± 0.8 mmHg
1.0% w/v, 360 min
  IOP changes (mean ± SEM) in the treated eye: −6.6 ± 1.6 mmHg
  IOP changes (mean ± SEM) in the untreated eye: −0.2 ± 1.1 mmHg
1.0% w/v, 420 min
  IOP changes (mean ± SEM) in the treated eye: −5.3 ± 1.5 mmHg
  IOP changes (mean ± SEM) in the untreated eye: −0.9 ± 1.0 mmHg
0.01% w/v, 0 min
  IOP changes (mean ± SEM) in the untreated eye: 0.0 ± 0.0 mmHg
0.01% w/v, 30 min
  IOP changes (mean ± SEM) in the untreated eye: −1.0 ± 1.1 mmHg
0.01% w/v, 60 min
  IOP changes (mean ± SEM) in the untreated eye: −1.9 ± 1.2 mmHg
0.01% w/v, 120 min
  IOP changes (mean ± SEM) in the untreated eye: −1.6 ± 1.0 mmHg
0.01% w/v, 180 min
  IOP changes (mean ± SEM) in the untreated eye: −0.5 ± 0.7 mmHg
0.01% w/v, 240 min
  IOP changes (mean ± SEM) in the untreated eye: −1.4 ± 0.7 mmHg
0.01% w/v, 300 min
  IOP changes (mean ± SEM) in the untreated eye: −1.7 ± 0.4 mmHg
0.01% w/v, 360 min
  IOP changes (mean ± SEM) in the untreated eye: 0.0 ± 0.6 mmHg
0.01% w/v, 420 min
  IOP changes (mean ± SEM) in the untreated eye: 0.4 ± 0.7 mmHg
0.05% w/v, 0 min
  IOP changes (mean ± SEM) in the untreated eye: 0.0 ± 0.0 mmHg
0.05% w/v, 30 min
  IOP changes (mean ± SEM) in the untreated eye: 0.0 ± 0.6 mmHg
0.05% w/v, 60 min
  IOP changes (mean ± SEM) in the untreated eye: 0.1 ± 0.7 mmHg
0.05% w/v, 120 min
  IOP changes (mean ± SEM) in the untreated eye: −1.5 ± 0.8 mmHg
0.05% w/v, 180 min
  IOP changes (mean ± SEM) in the untreated eye: −0.4 ± 1.0 mmHg
0.05% w/v, 240 min
  IOP changes (mean ± SEM) in the untreated eye: −1.0 ± 0.4 mmHg
0.05% w/v, 300 min
  IOP changes (mean ± SEM) in the untreated eye: −1.9 ± 0.9 mmHg
0.05% w/v, 360 min
  IOP changes (mean ± SEM) in the untreated eye: −0.6 ± 1.2 mmHg
0.05% w/v, 420 min
  IOP changes (mean ± SEM) in the untreated eye: 0.3 ± 0.7 mmHg
0.2% w/v, 0 min
  IOP changes (mean ± SEM) in the untreated eye: 0.0 ± 0.0 mmHg
0.2% w/v, 30 min
  IOP changes (mean ± SEM) in the untreated eye: 1.0 ± 0.8 mmHg
0.2% w/v, 60 min
  IOP changes (mean ± SEM) in the untreated eye: 0.5 ± 1.2 mmHg
0.2% w/v, 120 min
  IOP changes (mean ± SEM) in the untreated eye: 0.0 ± 0.9 mmHg
0.2% w/v, 180 min
  IOP changes (mean ± SEM) in the untreated eye: −1.5 ± 1.2 mmHg
0.2% w/v, 240 min
  IOP changes (mean ± SEM) in the untreated eye: −1.6 ± 1.1 mmHg
0.2% w/v, 300 min
  IOP changes (mean ± SEM) in the untreated eye: −1.1 ± 1.1 mmHg
0.2% w/v, 360 min
  IOP changes (mean ± SEM) in the untreated eye: −0.7 ± 1.0 mmHg
0.2% w/v, 420 min
  IOP changes (mean ± SEM) in the untreated eye: 0.0 ± 0.8 mmHg
0.5% w/v, 0 min
  IOP changes (mean ± SEM) in the untreated eye: 0.0 ± 0.0 mmHg
0.5% w/v, 30 min
  IOP changes (mean ± SEM) in the untreated eye: 2.9 ± 0.8 mmHg
0.5% w/v, 60 min
  IOP changes (mean ± SEM) in the untreated eye: 2.4 ± 0.7 mmHg
0.5% w/v, 120 min
  IOP changes (mean ± SEM) in the untreated eye: 1.4 ± 0.4 mmHg
0.5% w/v, 180 min
  IOP changes (mean ± SEM) in the untreated eye: 0.0 ± 0.5 mmHg
0.5% w/v, 240 min
  IOP changes (mean ± SEM) in the untreated eye: −0.2 ± 0.7 mmHg
0.5% w/v, 300 min
  IOP changes (mean ± SEM) in the untreated eye: −0.9 ± 0.4 mmHg
0.5% w/v, 360 min
  IOP changes (mean ± SEM) in the untreated eye: −0.7 ± 0.6 mmHg
0.5% w/v, 420 min
  IOP changes (mean ± SEM) in the untreated eye: −0.2 ± 0.3 mmHg
1.0% w/v, 0 min
  IOP changes (mean ± SEM) in the untreated eye: 0.0 ± 0.0 mmHg
1.0% w/v, 30 min
  IOP changes (mean ± SEM) in the untreated eye: 2.2 ± 0.9 mmHg
1.0% w/v, 60 min
  IOP changes (mean ± SEM) in the untreated eye: 1.2 ± 1.2 mmHg
1.0% w/v, 120 min
  IOP changes (mean ± SEM) in the untreated eye: 1.0 ± 0.8 mmHg
1.0% w/v, 180 min
  IOP changes (mean ± SEM) in the untreated eye: −2.5 ± 1.3 mmHg
1.0% w/v, 240 min
  IOP changes (mean ± SEM) in the untreated eye: −1.8 ± 0.6 mmHg
